US20260072027A1, “Peptides And Method” (Queen Mary University of London, priority 2022, published 2026)
Where no end group is shown, it is not given here.

Tests used:
CD4+ T-cells (PBMCs) = experiment: In vitro peptide stimulation and T-cell proliferation assay, CD4+; assay type: cell-based, human
Excerpt: (§1) In vitro peptide stimulation and T-cell proliferation assay. Peripheral blood mononuclear cells (PBMCs) were freshly isolated from type 1 diabetes and healthy individuals using Ficoll-Hypaque density gradient centrifugation. PBMCs were labelled with the fluorescent dye CellTrace Violet (Invitrogen, Thermo Fisher Scientific) and cultured (2×10^5 cells/well) in round-bottom 96-well plates (Falcon, Becton Dickinson) with RPMI-1640 medium (Gibco, Thermo Fisher Scientific) supplemented with 5% autologous plasma in the presence or not of insulin peptides (20 μg/ml); PPD (10 μg/ml) and anti-CD3 (0.1 μg/ml; clone OKT3) were used as positive control. Two scrambled peptides: […] (SEQ ID NO: 17), […] (SEQ ID NO: 18), and the Exendin 9-39 fragment were used as negative controls. After 7 days, PBMCs were stained with PE-Cy7 anti-CD8 (clone RPA-T8, BD Pharmingen) and FITC anti-CD3 (clone UCHT1, BD Pharmingen). Samples were analysed by using a FACSCanto II (BD Bioscience) to evaluate T-cell proliferation measured as CellTrace Violet dilution. Cytofluorimetric analyses were performed using FlowJo Software (FlowJo, LLC). The results were given as stimulation index (SI), calculated as percentage of stimulated T-cell subset proliferation/percentage of unstimulated T-cell subset proliferation. Assay for detection of peptide specific T cells subsets was done as previously described (detailed in ESM methods, Assay for detection of peptide specific T cells)
(§2) T-cell stimulation with oxPTM-INSPs. To evaluate the immune cell response against the oxPTM-INSPs, we performed CD4+ and CD8+ T cells proliferation experiments using freshly isolated PBMCs (Study cohort 2, Table 1). Response was calculated as stimulatory index (SI) over unstimulated T-cells.

[1] = system: autoantibodies to oxPTM-INS; experiment: Competitive displacement ELISA, plate coated with oxidised insulin; assay type: binding, human; conditions: sera pre-incubated with peptide competitor
Experimental: A competitive displacement assay was performed to map the exact epitope, namely the exact amino acid sequence binding specificities and to test the binding to native peptides versus oxidised insulin peptides. The binding to the peptide was done by direct ELISA on the native or modified peptides or by competition ELISA. Initially native synthetic peptide was oxidised by exposing to 0.05 mM CuCl2; 90 mM H2O2; 10 mM NaOCl. Native and modified peptides were fractionated by AKTA to evaluated changes in molecular profile. AKTA fractions were then tested by ELISA for reactivity (FIGS. 2 and 3). We next perform competition ELISA with the native peptides and peptides exposed to 0.05 mM CuCl2; 90 mM H2O2; 10 mM NaOCl. Serum samples were pre-incubated with either native insulin peptides or oxidised insulin peptides. Finally, based on the amino acid sequence of the identified peptides we predicted the amino acids that would be oxidised by ^●OH and HOCl and designed synthetic peptides that contain the oxidised amino acids in the synthesis. Synthetic peptides were produced by standard commercially available methods, specifically by Peptide Protein Research Ltd. Briefly, peptide synthesis was performed by automated solid phase peptide synthesis (SPPS), which was followed by purification. Each individual amino acid was added to the growing chain according to the sequence. Where specified, dihydroxyphenylalanine was added to replace Tyr or cysteate were added to replace Cys. Similarly, these peptides were tested by competition ELISA. The table below describe the different competition ELISA performed:
Serum samples from children with type 1 diabetes were pre-incubated with the synthetic peptides before they were added to the native insulin or oxidised that were previously coated on the ELISA plate. If the antibodies in the serum sample bind to the peptide they will no longer bind to the insulin or oxidised insulin on the plate-competition ELISA. 1:200 dilutions of serum samples from T1D serum samples were pre-incubated for 2 hr at room temperature with the various peptides as shown in the table above. After incubation, serum/peptide mix was added to the ELISA plate previously coated overnight with either native insulin or oxidised insulin for an additional 2 hr incubation. Plates were then washed in a plate washer three times with PBS 0.05% tween. After washing, 100 ul of anti-human IgG diluted 1:1000 in 1% milk-PBS 0.05% tween were added for additional 1 hour and 30 min incubation. After washing, ELISA was developed by adding 100 ul of TMB (10 mg/ml in DMSO) in 10 ml of 0.1 M sodium acetate plus 2 ul of H2O2. Reaction was stopped by adding 0.5 M H2SO4 (usually 20 min for insulin ELISA).
To assess the binding specificity of serum samples to identified peptides, a competitive ELISA was performed. The ELISA was carried out following the method described above, except that the serum samples were pre-incubated for 2 h with and without 10 μg/ml peptides as competitors, before adding the serum samples to the insulin coated ELISA plate.

serum IgG autoantibodies = experiment: ELISA for autoantibody detection: serum antibody binding to native and oxPTM insulin peptides; set-up: species or system human; conditions: for % binders, Healthy controls / Mean ± SEM (absorbance, OD), Healthy controls / % binders, Type 1 diabetes: Study cohort 1; for % binders, Type 1 diabetes: cut-off = mean of healthy controls to Nt-INSP plus 3 SEM; for Mean ± SEM (absorbance, OD), Type 1 diabetes: Study cohort 1 sera
Experimental: ELISA for autoantibody detection. The ELISA analysis of Nt-INS and oxPTM-INS autoantibodies was performed as previously described [18](detailed in ESM methods, ELISA assay for antibody detection).
Statistical analyses. Statistical analyses were performed using Prism Software 9.0 (GraphPad, San Diego, CA, USA). Cut-off points of positivity (binders) in the antibody ELISA for each peptide were defined by the mean of optical absorbance (O.D) of healthy controls to the corresponding Nt-INSP plus three times the standard error of the mean (SEM). Specificity and sensitivity were evaluated by receiver operating characteristic (ROC) curve analysis. Area under the curve (AUC) is reported as absolute value and was tested for equality according to DeLong et al. Differences in antibody levels and T-cell stimulation indices (SI) between groups were tested by the One way ANOVA or Student's t-tests as appropriate. Correlation analyses were tested by Pearson or Spearman's test, as appropriate. Categorical analyses were performed by Chi-square or McNemar's tests, as appropriate. For each set of experiments, p values were adjusted for multiple comparison using the Holm-Sidak's test. Hierarchical cluster and Principal Component Analysis (PCA) was done using Clustvis software (https://biit.cs.ut.ee/clustvis/) and Prism Software 9.0, respectively.
Antibody reactivity of type 1 diabetes serum against the candidate oxPTM-INSP. Identified peptide candidates were synthesised and exposed to either HOCl or ^●OH to generate oxPTM-INSPs that were first assessed by TOF-MS/ES+TIC to confirm modification (FIG. 17). Antibody response against native INSPs (Nt-INSPs) and oxPTM-INSPs was evaluated by ELISA using sera from Study cohort 1.
ESM Methods ELISA assay for antibody detection. The ELISA analysis of native (Nt-INS) and modified insulin (oxPTM-INS) was performed as previously described. Briefly, the ELISA plate was coated overnight at 4° C. with 100 μl per well of modified or native insulin in 0.05 M carbonate/bicarbonate buffer pH 9.6 at 10 μg/ml. The next day, the plates were washed 3 times with 0.1% Tween PBS, followed by blocking for 2 hours at room temperature with 200 μl per well of 5% BSA in 0.1% Tween PBS. After washing, 100 μl of 1:200-diluted serum samples in 5% BSA-0.1% Tween PBS were added for additional 2 hours incubation. ELISA plates were then washed 3 times with 0.1% Tween PBS followed by probing with anti-human IgG horse radish peroxidase conjugated (HRP, Sigma) at 1:1,000 dilution in 5% BSA-0.1% Tween PBS for another 1.5 hours incubation. The ELISA plates were washed, and 100 μg/ml TMB substrate in 0.1M sodium acetate pH 6.0 plus 2 μl/10 ml of H2O2, were added. Subsequently, the reaction was stopped with 20% v/v sulphuric acid. The optical density (O.D.) was measured at 450 nm using a GENios plate reader and Magellan software (TECAN, Dorset, UK).

CD8+ T-cells (PBMCs) = experiment: In vitro peptide stimulation and T-cell proliferation assay, CD8+; assay type: cell-based, human
Excerpt: as §1, §2

SLYQLENYCN (Ac-SLYQLENYCN) [insulin A:12-21 native peptide]
CD4+ T-cell response, subjects with SI > 1 (%) (CD4+ T-cells (PBMCs); Controls (N = 11)): (54.5%) | CD4+ T-cell response, subjects with SI > 3 (%) (CD4+ T-cells (PBMCs); Controls (N = 11)): (18.2%) | CD4+ T-cell response, subjects with SI > 5 (%) (CD4+ T-cells (PBMCs); Controls (N = 11)): (9.1%) | CD4+ T-cell response, subjects with SI > 10 (%) (CD4+ T-cells (PBMCs); Controls (N = 11)): (0.0%) | CD4+ T-cell response, subjects with SI > 1 (%) (CD4+ T-cells (PBMCs); Type 1 diabetes (N = 18)): (72.2%) | CD4+ T-cell response, subjects with SI > 3 (%) (CD4+ T-cells (PBMCs); Type 1 diabetes (N = 18)): (27.8%) | CD4+ T-cell response, subjects with SI > 5 (%) (CD4+ T-cells (PBMCs); Type 1 diabetes (N = 18)): (21.1%) | CD4+ T-cell response, subjects with SI > 10 (%) (CD4+ T-cells (PBMCs); Type 1 diabetes (N = 18)): (16.7%) | inhibition of type 1 diabetes serum binding to oxPTM-INS (in words) [1]: not | % binders, Healthy controls (serum IgG autoantibodies; in house modifications): 19% | Mean ± SEM (absorbance, OD), Healthy controls (serum IgG autoantibodies; in house modifications): 0.333 ± 0.030 | % binders, Type 1 diabetes (serum IgG autoantibodies; in house modifications): 42% | % binders, Healthy controls (serum IgG autoantibodies; in silico modifications): 9% | Mean ± SEM (absorbance, OD), Healthy controls (serum IgG autoantibodies; in silico modifications): 0.143 ± 0.007 | % binders, Type 1 diabetes (serum IgG autoantibodies; in silico modifications): 49% | Mean ± SEM (absorbance, OD), Type 1 diabetes (serum IgG autoantibodies; in house modifications): 0.405 ± 0.029 | Mean ± SEM (absorbance, OD), Type 1 diabetes (serum IgG autoantibodies; in silico modifications): 0.242 ± 0.019 | CD8+ T-cell response, subjects with SI > 1 (%) (CD8+ T-cells (PBMCs); Controls (N = 11)): (36.4%) | CD8+ T-cell response, subjects with SI > 3 (%) (CD8+ T-cells (PBMCs); Controls (N = 11)): (36.4%) | CD8+ T-cell response, subjects with SI > 5 (%) (CD8+ T-cells (PBMCs); Controls (N = 11)): (36.4%) | CD8+ T-cell response, subjects with SI > 10 (%) (CD8+ T-cells (PBMCs); Controls (N = 11)): (18.2%) | CD8+ T-cell response, subjects with SI > 1 (%) (CD8+ T-cells (PBMCs); Type 1 diabetes (N = 18)): (50.0%) | CD8+ T-cell response, subjects with SI > 3 (%) (CD8+ T-cells (PBMCs); Type 1 diabetes (N = 18)): (22.2%) | CD8+ T-cell response, subjects with SI > 5 (%) (CD8+ T-cells (PBMCs); Type 1 diabetes (N = 18)): (11.1%) | CD8+ T-cell response, subjects with SI > 10 (%) (CD8+ T-cells (PBMCs); Type 1 diabetes (N = 18)): (5.6%)
